Data set [1] concerns the target T1, DPIV (N-terminal Xaa-Pro releasing activity) in human plasma (Homo sapiens, UniProt P27487).
T1 construct: Human plasma contains N-terminal Xaa-Pro releasing activity; from tissue; host or cells: human plasma
Kind of data set: Ki-determination in human plasma. Format: biochemical. As for the experimental part:
Human plasma contains N-terminal Xaa-Pro releasing activity. 70 μL glutaminyl pyrrolidine or glutaminyl thiazolidine in an concentration range of 1*10^−5 M -1*10^−7 M (glutaminyl pyrrolidine) and 1*10^−6 M-1*10^−8 M (glutaminyl thiazolidine) respectively were admixed with 50 μL glycylprolyl-4-nitroaniline in different concentrations (0.4 mM, 0.2 mM, 0.1 mM, 0,05 mM) and 100 μl HEPES (40 mM, pH7.6). The assay mixture was pre-incubated at 30 ° C. for 5 min and 22 hours respectively. After pre-incubation, 50 μL human plasma were added and measurement of yellow color development due to 4-nitroaniline release was performed at 30° C. and λ=405 nm for 10 min using a plate reader ([HTS7000 plus, Applied Biosystems, Weiterstadt, Germany). The Ki-values were calculated using Graphit 4.0.15 (Erithacus Software, Ltd, UK) based on a competitive inhibition of DPIV by glutaminyl pyrrolidine or glutaminyl thiazolidine.

Data set [2] is described as follows: In vivo inactivation (degradation) after oral administration to Wistar rats, LC/MS. The following applies: LC/MS of plasma. Here is the method: Glutaminyl thiazolidine was administered to Wistar rats orally. After application of placebo or glutaminyl thiazolidine, arterial blood samples were taken at 2.5, 5, 7.5, 10, 15, 20, 40, 60 and 120 min from the carotid catheter of the conscious unrestrained rats to determine the formation of degradation products of glutaminyl thiazolidine. For analysis, simple solid phase extraction procedure on C18 cartridges was used to isolate the compounds of interest from the plasma. The extracts were analysed using reversed-phase liquid chromatography on Lichrospher 60 RP Select B column hyphenated with tandem mass spectrometry operating in the APCI positive mode. An internal standard method was used for quantification.

The nature of another data set: Plasma stability. Format: in vitro ADME, human. The following applies: 37 °C; for stability in human plasma: human plasma in vitro; for half-life of the inhibitory potency: human plasma, 5*10^−5, 2.5*10^−5, 1.25*10^−5 M. Here is the method:
In order to investigate the stability of glutaminyl pyrrolidine or glutaminyl thiazolidine in human plasma, the activity of DPIV in plasma was determined at a defined time. The average DPIV activity in human plasma was determined as 43.69 U/mL. In the working solution, the plasma was diluted in 0.9% NaCl to fix the DPIV activity level at 25 U/mL. Plasma and glutaminyl pyrrolidine or glutaminyl thiazolidine in different concentrations (5*10^−5, 2.5*10^−5, 1.25*10^−5 M in plasma) were incubated at 37° C. At defined time points samples were taken using a pipette roboter (Gilson 215, Liquid handler, Gilson) and transferred in a microtiter plate containing 5*10^−5 M glycylprolylaminomethylcoumarine in 0.9% NaCl+015% Brij per well. After 6 min the reaction was stopped by addition of isoleucylthiazolidine (5*10^−5 M in 0.9% NaCl solution). Fluorescence measurement was performed against 0.9% NaCl in plasma (reference standard) using a plate reader (HTS7000 plus, Applied Biosystems, Weiterstadt, Germany). The half-life of the inhibitory potency of glutaminyl pyrrolidine or glutaminyl thiazolidine was calculated by plotting the enzyme activity versus reaction time.

Data set [3] has as its target T2, dipeptidyl peptidase IV from porcine kidney (Sus scrofa, UniProt P22411).
T2 construct: dipeptidyl peptidase IV from porcine kidney with a specific activity against glycylprolyl-4-nitroaniline of 37.5 U/mg; from tissue; host or cells: porcine kidney
Kind of data set: Ki-determination, DP IV from porcine kidney. The following applies: substrate glycylprolyl-4-nitroaniline, 30 °C, pH 7.6, competitive inhibition. Format: biochemical. Here is the method:
For Kidetermination of glutaminyl pyrrolidine and glutaminyl thiazolidine, dipeptidyl peptidase IV from porcine kidney with a specific activity against glycylprolyl-4-nitroaniline of 37.5 U/mg and an enzyme concentration of 1.41 mg/mL in the stock solution was used.
100 μL glutaminyl pyrrolidine or glutaminyl thiazolidine in a concentration range of 1*10^−5 -1*10^−7 M (glutaminyl pyrrolidine) and 1*10^−6 M-1*10^−8 M (glutaminyl thiazolidine) respectively were admixed with 50 μL glycylprolyl-4-nitroaniline in different concentrations (0.4 mM, 0.2 mM, 0.1 mM, 0,05 mM) and 100 μl HEPES (40 mM, pH7.6; ion strength=0.125). The assay mixture was pre-incubated at 30 ° C. for 30 min. After pre-incubation, 20 μL DPIV (1:600 diluted) were added and measurement of yellow color development due to 4-nitroaniline release was performed at 30° C. and λ=405 nm for 10 min using a plate reader (HTS7000 plus, Applied Biosystems, Weiterstadt, Germany). The Ki-values were calculated using Graphit 4.0.15 (Erithacus Software, Ltd, UK) based on a competitive inhibition of DPIV by glutaminyl pyrrolidine or glutaminyl thiazolidine.

SMILES strings stand for the structures.

T1 sequence (P27487 39-766 limits assumed): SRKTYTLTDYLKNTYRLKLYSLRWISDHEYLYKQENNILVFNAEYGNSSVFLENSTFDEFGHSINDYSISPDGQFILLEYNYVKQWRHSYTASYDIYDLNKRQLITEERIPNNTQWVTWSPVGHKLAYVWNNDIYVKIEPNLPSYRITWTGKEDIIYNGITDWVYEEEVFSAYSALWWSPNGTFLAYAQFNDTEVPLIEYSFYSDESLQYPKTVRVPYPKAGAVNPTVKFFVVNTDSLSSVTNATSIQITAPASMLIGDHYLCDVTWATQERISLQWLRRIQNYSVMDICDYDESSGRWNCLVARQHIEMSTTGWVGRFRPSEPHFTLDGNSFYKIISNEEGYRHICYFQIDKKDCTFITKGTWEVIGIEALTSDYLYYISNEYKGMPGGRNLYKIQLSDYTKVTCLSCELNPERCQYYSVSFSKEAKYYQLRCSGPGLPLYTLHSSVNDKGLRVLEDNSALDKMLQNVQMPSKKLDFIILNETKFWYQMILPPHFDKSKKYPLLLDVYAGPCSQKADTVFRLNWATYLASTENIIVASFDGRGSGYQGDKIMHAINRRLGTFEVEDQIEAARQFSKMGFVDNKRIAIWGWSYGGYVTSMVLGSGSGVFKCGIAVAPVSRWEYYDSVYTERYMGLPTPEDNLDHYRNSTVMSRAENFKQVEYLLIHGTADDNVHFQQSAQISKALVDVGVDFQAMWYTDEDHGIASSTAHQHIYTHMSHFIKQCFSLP
T2 sequence (P22411 whole entry): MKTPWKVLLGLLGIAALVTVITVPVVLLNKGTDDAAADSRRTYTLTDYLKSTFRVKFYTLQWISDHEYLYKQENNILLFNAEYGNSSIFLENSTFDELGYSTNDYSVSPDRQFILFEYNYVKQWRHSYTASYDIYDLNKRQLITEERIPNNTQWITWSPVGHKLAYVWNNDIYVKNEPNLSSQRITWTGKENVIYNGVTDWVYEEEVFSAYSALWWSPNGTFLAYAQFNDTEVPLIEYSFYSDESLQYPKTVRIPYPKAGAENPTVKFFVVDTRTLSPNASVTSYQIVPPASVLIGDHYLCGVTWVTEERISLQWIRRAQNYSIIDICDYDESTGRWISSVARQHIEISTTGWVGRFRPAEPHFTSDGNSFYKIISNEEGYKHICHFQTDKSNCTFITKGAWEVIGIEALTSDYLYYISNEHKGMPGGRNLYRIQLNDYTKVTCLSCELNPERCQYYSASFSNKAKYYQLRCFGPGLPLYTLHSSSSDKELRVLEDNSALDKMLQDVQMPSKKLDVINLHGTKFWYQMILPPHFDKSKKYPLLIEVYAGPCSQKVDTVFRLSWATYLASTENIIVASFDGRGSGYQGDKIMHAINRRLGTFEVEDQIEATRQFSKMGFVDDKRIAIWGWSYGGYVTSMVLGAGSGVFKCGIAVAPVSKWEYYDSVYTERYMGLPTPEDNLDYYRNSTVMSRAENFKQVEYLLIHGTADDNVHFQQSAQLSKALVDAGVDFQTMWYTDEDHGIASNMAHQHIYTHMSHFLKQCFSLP

In general, Ki refers to the equilibrium dissociation constant of an inhibitor or competing ligand from its target. As to `NC(=O)CC[C@H](N)C(=O)N1CCCC1` [glutaminyl pyrrolidine], the Ki in data set [1] (after 5 min pre-incubation) turned out to be 1300 nM; in data set [1] (after 22 hours pre-incubation), 1360 nM; in data set [3] it was 1300 nM. Further, in data set [2], the “degradation product in vivo” value is reported as “pyroglutaminyl pyrrolidine”. The “stability in human plasma” value in the data set “Plasma stability” was “stable in human plasma over 22 hours”. Also, the “half-life of the inhibitory potency” value in “Plasma stability” was “no half-time could be determined”.

On to `NC(=O)CC[C@H](N)C(=O)N1CCSC1` [glutaminyl thiazolidine], for which the Ki worked out at 403 nM in data set [1] (after 5 min pre-incubation), 513 nM in data set [1] (after 22 hours pre-incubation) and 312 nM in data set [3]. The “degradation product in vivo” value in data set [2] is recorded as “pyroglutaminyl thiazolidine”. For the same compound, the “stability in human plasma” value in “Plasma stability” is listed as “stable in human plasma over 22 hours”. Further, the “half-life of the inhibitory potency” value in “Plasma stability” is “no half-time could be determined”.

Values taken from patent publication US20060287251A1, “Combination therapy for glycaemic control” (priority 2003, published 2006).
